From patent US20140303216A1, “COMPOSITIONS AND METHODS FOR INDUCING DISRUPTION OF BLOOD VASCULATURE AND FOR REDUCING ANGIOGENESIS” (BOARD OF REGENTS, THE UNIVERSITY OF TEXAS SYSTEM, priority 2011, published 2014)

Columns and labels:
[1] = system: developing Xenopus embryos; assay: Xenopus embryo angiogenesis, in situ hybridization for erg/apinr and kdr:GFP imaging; format: in vivo, Xenopus laevis; conditions: for anti-angiogenic activity of other benzimidazoles: Xenopus in vivo, at dosages at which TBZ reduces angiogenesis (FIG. 14)
Excerpt: (§1) Female adult Xenopus were ovulated by injections of human chorionic gonadotropin, and eggs were fertilized in vitro and dejellied in 3% cysteine (pH 7.9) and subsequently reared in ⅓×Marc's modified Ringer's (MMR) solution. For microinjections, embryos were placed in a solution of 2% Ficoll in ⅓×MMR solution, injected using forceps and an Oxford universal manipulator, reared in 2% Ficoll in ⅓×MMR to stage 9, then washed and reared in ⅓×MMR solution alone. For bilateral rab11b knock-down experiments, the posterior cardinal vein and intersomitic veins were targeted by injecting Morpholino antisense oligonucleotides (MOs) into the two ventral cells equatorially at the four-cell stage. For unilateral knockdown, only one ventral cell was injected. MOs were injected at 40 ng per blastomere. For the experiments to see the drug effects, embryos were placed in a solution of each chemical dissolved in 1% DMSO diluted in ⅓×MMR during indicated stages. For bead micro-surgery implantation, Affi-Gel Blue Gel beads (Bio-Rad) were soaked with 0.7 mg/ml recombinant mouse VEGF 164 aa (R&D systems) or BSA as a control. Whole-mount in situ hybridization for erg and apinr was performed as described^29.
To analyze action of TBZ precisely on inhibition of angiogenesis and disruption of vasculature, we tested TBZ on two different developmental stages. Xenopus late tailbud embryos at stage 31 were selected for testing the inhibitory effect of TBZ on angiogenesis (FIG. 3A-D). This embryonic stage coincides with the onset of intersomitic vein (ISV) angiogenesis, the process of forming smaller blood vessels by sprouting from pre-existing blood vessels. To observe disruption of existing vasculature, we selected stage 35/36 embryos in which the posterior cardinal vein (PCV) and ISV are already developed (FIG. 15).

Xenopus embryos = assay: Xenopus embryo morphology and developmental defects; format: in vivo; conditions: FIG. 14; 250 μM for 2-(Chloromethyl)benzimidazole
Excerpt: as §1, with “1⁄3×Marc's” for “⅓×Marc's”, “1⁄3×MMR” for “⅓×MMR”, “[…] performed as described^29. Immunostaining for Xenopus” for “erg and apinr”, “previously described (Lee et al., 2008). Embryos at stage 35-36 were fixed in 1×MEMFA. 12/101 (1:500; DSHB), and primary antibodies were detected with Alexa Fluor-488 or 555 goat anti-mouse Immunoglobulin (IgG).” for “described^29.”

HUVECs = assay: HUVEC wound scratch cell migration assay; format: cell-based, human; conditions: added to 250 μM TBZ in 1% DMSO; Y27632 preincubated 2 h
Method: HUVECs (1.2×10^5 cells) were seeded into 24-well plate for 24 h, and the monolayers were wounded identically. Then, cells were washed with PBS and treated with EBM-2 containing 1% DMSO or 250 μM TBZ dissolved in 1% DMSO with combination of Y27632 or GGPP (Sigma). In the case of Y27632 treatment, cells were preincubated for 2 h before wounding. Cells were photographed at time zero and after 15 h, and the ratios of cell free area [(0 h-15 h)/0 h] were calculated.

angiogenesis = conditions: from the literature; cited from earlier work
lung cancer = conditions: treatment of lung cancer; cited from earlier work

| anti-angiogenic activity of other benzimidazoles [1] | Structure (SMILES) | Known effects on angiogenesis (angiogenesis) | further results |
| --- | --- | --- | --- |
| not anti-angiogenic | ClCc1nc2ccccc2[nH]1 [2-(Chloromethyl)benzimidazole] | – | developmental (birth) defects in Xenopus (Xenopus embryos): pleiotropic birth defects |
| not anti-angiogenic | O=C(O)c1cccc2[nH]cnc12 [1H-Benzimidazole-4-carboxylic acid] | – | – |
| not anti-angiogenic | Nc1ccc2[nH]c(C(F)(F)F)nc2c1 [5-Amino-2-(trifluoromethyl)benzimidazole] | – | – |
| not anti-angiogenic | Clc1ccc2nc(C(Cl)(Cl)Cl)[nH]c2c1 [5-Chloro-2-(trichloromethyl)benzimidazole] | – | – |
| – | C[C@@H](N)[C@H]1CC[C@H](C(=O)Nc2ccncc2)CC1 [Y27632] | – | reversal of TBZ-impeded HUVEC migration by added compound (HUVECs): significant and dose-dependent rescue |
| – | O=c1[nH]cc(F)c(=O)[nH]1 [5-fluorouracil] | Inhibitor^† | – |
| not anti-angiogenic | c1ccc2[nH]cnc2c1 [Benzimidazole] | – | activity in reducing angiogenesis ([1]; doses up to 1 mM): inactive |
| – | COc1c(C)c2c(c(O)c1C/C=C(\C)CCC(=O)O)C(=O)OC2 [Mycophenolic acid] | Inhibitor* | – |
| – | CC[C@H](C)C(=O)O[C@H]1C[C@@H](C)C=C2C=C[C@H](C)[C@H](CC[C@@H]3C[C@@H](O)CC(=O)O3)[C@H]21 [lovastatin] | inhibit angiogenesis | – |
| – | [N]=O [Nitric oxide] | Activator^# | – |
| – | CC(C)=CCC/C(C)=C/CC/C(C)=C/CC/C(C)=C/COP(=O)(O)OP(=O)(O)O [GGPP, geranyl-geranyl pyrophosphate] | – | reversal of TBZ-impeded HUVEC migration by added compound (HUVECs): did not reverse |
| – | Cc1ccc2c(=O)c3cccc(CC(=O)O)c3oc2c1C [ASA404] | – | efficacy in Phase III clinical trial (lung cancer): failed to show efficacy |
| – | O=S(=O)([O-])[O-].[Cu+2] [CuSO4] | Activators^‡ | – |

| Structure (SMILES) | anti-angiogenic activity of other benzimidazoles [1] | Known effects on angiogenesis (angiogenesis) | further results |
| --- | --- | --- | --- |
| Nc1nc2ccc(C(=O)c3ccc(F)cc3)cc2[nH]1 [2-Aminoflubendazole] | not anti-angiogenic | – | – |
